Test results reported in patent US10968236B2, “TYK2 inhibitors and uses thereof” (Nimbus Lakshmi, Inc., priority 2015, dated 2021).

Assays:
[1] = target: TYK2 (Homo sapiens (Human), UniProt P29597); assay: Tyk2 activity inhibition assay (radioactive kinase / Caliper assay); assay type: biochemical
Description: (§1) Peptide substrate, [KKSRGDYMTMQIG], (20 μM) is prepared in reaction buffer (20 mM Hepes pH 7.5, 10 mM MgCl2, 1 mM EGTA, 0.02% Brij35, 0.02 mg/mL BSA, 0.1 mM […], 2 mM DTT, 1% DMSO. TYK2 (Invitrogen) kinase is added, followed by compounds in DMSO. 33PATP is added to initiate the reaction in ATP at 10 μM. Kinase reaction is incubated for 120 min at room temp and reactions are spotted onto P81 ion exchange paper (Whatman #3698-915), and then washed extensively in 0.75% phosphoric acid, prior to reading the radioactivity counts. For JAK2 (Invitrogen) kinase assay the peptide substrate poly[Glu:Tyr] (4:1), 0.2 mg/ml is used, in the reaction carried out the same as for TYK2.
(§2) The caliper machine employs an off chip mobility shift assay to detect phosphorylated peptide substrates from kinase assays, using microfluidics technology. The assays are carried out at ATP concentration equivalent to the ATP Km, and at 1 mM ATP. Compounds are serially diluted in DMSO then further diluted in assay buffer (25 mM HEPES, pH 7.5, 0.01% Brij-35, 0.01% Triton, 0.5 mM EGTA). 5 ul of diluted compound was added into wells first, then 10 ul of enzyme mix was added into wells, followed by 10 uL of substrate mix (peptide and ATP in 10 mM MgCl2) to start reaction. Reaction was incubated at 28° C. for 25 min and then added 25 ul stop buffer (100 mM HEPES, 0.015% Brij-35, 50 mM EDTA), followed by reading with Caliper. JAK2 at 1 nM final concentration and TYK2 at 9.75 nM are from Carna, and substrates used are ATP at 20 and 16 uM, respectively. JAK2 assay uses peptide 22 and TYK2 uses peptide 30 (Caliper), each at 3 uM.
(§3) The compound numbers correspond to the compound numbers in Table 1. Compounds having an activity designated as “A” provided an Ki≤0.01 μM; compounds having an activity designated as “B” provided an Ki of 0.01-0.1 μM; compounds having an activity designated as “C” provided an Ki of 0.1-1.0 μM; and compounds having an activity designated as “D” provided an Ki≥1.0 μM.

[2] = system: GM-CSF induced pSTAT5 (JAK2-pSTAT5); assay: GM-CSF Induced pSTAT5 in human PBMC; assay type: cell-based; details: GM-CSF 5 ng/mL
Description: GM-CSF Induced pSTAT5 in human PBMC. Cells are prepared for analysis as in the above procedure and 15 μl of GM-CSF (final concentration 5 ng/mL) is added for 20 minutes prior to pSTAT5 and total STAT5 analysis using cell lysates prepared and analyzed by MSD reagents as per manufacturer protocol. The final DMSO concentration of compound in the assay is 0.1%.
(§4) The compound numbers correspond to the compound numbers in Table 1. Compounds having an activity designated as “A” provided an EC50≤2 μM; compounds having an activity designated as “B” provided a EC50 of 2-20 μM, and compounds having an activity designated as “C” provided an EC50>20 μM.

[3] = system: IL-12 induced pSTAT4 (Tyk2-pSTAT4); assay: IL-12 Induced pSTAT4 in human PBMC; assay type: cell-based; details: IL-12 1.7 ng/mL
Description: IL-12 Induced pSTAT4 in human PBMC. Human PBMC are isolated from buffy coat and are stored frozen for assays as needed. Cells for assay are thawed and resuspended in complete media containing serum, then cells are diluted to 1.67 E6 cells/ml so that 120 μl per well is 200,000 cells. 15 μl of compound or DMSO is added to the well at the desired concentrations and incubated at 1 hr at 37 C. 15 μl of stimulus (final concentration of 1.7 ng/mL IL-12) is added for 30 minutes prior to pSTAT4 and total STAT4 analysis using cell lysates prepared and analyzed by MSD reagents as per manufacturer protocol. The final DMSO concentration of compound in the assay is 0.1%.
as §4

[4] = target: JAK2 (Homo sapiens (Human), UniProt O60674); assay: JAK2 activity inhibition assay (radioactive kinase / Caliper assay); assay type: biochemical
Sequence of JAK2 (O60674 whole entry): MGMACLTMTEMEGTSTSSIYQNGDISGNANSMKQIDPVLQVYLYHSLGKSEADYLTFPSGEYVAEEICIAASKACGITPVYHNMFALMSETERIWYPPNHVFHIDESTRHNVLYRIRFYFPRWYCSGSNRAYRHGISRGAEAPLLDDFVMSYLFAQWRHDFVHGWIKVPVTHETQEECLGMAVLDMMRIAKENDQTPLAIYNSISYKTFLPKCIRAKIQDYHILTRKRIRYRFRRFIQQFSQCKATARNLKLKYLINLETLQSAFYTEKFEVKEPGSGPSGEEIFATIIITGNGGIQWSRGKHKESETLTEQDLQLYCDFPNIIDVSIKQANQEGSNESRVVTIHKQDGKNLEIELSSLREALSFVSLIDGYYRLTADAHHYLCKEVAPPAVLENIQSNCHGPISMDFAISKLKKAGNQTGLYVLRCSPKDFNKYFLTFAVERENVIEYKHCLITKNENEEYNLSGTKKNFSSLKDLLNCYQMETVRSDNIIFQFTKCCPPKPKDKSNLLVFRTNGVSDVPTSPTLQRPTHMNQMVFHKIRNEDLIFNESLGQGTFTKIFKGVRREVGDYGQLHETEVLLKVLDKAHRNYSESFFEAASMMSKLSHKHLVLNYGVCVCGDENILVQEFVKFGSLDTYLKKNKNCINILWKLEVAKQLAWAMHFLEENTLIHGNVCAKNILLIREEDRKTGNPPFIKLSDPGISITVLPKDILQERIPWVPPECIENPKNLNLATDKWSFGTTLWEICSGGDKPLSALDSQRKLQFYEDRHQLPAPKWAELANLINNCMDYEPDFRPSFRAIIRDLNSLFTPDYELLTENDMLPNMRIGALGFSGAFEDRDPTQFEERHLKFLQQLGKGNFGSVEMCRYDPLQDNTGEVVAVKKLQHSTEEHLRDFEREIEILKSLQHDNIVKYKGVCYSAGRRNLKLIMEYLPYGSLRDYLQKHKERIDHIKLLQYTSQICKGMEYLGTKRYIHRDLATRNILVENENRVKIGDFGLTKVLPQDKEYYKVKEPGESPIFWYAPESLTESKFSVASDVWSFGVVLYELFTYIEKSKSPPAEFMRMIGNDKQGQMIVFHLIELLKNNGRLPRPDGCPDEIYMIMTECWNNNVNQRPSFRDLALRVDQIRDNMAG
Description: as §1, §2, §3

Sequence of TYK2 (P29597 whole entry): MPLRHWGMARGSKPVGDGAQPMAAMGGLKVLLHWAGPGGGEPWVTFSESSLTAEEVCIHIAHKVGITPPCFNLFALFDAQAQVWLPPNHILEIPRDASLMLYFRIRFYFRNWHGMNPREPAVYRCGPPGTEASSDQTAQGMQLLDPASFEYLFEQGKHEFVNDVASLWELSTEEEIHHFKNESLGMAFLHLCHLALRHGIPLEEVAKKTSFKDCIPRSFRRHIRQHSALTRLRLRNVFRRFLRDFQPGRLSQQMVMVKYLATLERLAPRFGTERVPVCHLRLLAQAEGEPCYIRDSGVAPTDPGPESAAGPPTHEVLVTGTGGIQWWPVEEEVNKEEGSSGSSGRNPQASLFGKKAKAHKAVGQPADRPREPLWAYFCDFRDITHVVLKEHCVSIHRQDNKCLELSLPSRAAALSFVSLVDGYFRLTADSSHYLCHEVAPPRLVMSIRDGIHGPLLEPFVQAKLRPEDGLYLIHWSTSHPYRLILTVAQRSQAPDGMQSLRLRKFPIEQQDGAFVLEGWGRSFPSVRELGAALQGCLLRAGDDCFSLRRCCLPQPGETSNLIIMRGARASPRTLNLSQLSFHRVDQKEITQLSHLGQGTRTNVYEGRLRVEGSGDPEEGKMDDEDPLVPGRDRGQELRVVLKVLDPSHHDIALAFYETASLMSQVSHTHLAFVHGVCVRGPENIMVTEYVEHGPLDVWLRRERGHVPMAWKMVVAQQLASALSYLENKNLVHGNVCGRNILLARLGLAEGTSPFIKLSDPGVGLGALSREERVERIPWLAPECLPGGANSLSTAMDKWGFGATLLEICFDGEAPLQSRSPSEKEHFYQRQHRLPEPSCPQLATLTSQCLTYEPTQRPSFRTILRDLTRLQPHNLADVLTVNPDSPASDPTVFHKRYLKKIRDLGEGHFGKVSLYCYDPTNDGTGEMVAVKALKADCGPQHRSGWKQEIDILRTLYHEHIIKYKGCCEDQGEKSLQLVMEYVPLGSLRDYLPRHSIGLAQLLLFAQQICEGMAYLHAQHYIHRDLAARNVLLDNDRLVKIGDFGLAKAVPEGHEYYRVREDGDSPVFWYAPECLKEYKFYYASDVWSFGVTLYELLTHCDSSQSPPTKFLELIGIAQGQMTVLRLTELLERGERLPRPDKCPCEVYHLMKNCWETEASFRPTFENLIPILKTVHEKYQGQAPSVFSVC

| Compound | Ki [1] [nM] | EC50 [2] [nM] | EC50 [3] [nM] | Ki [4] [nM] |
| --- | --- | --- | --- | --- |
| O=C1NCc2nc(-c3c(F)cccc3F)cc(Nc3ccc(C(=O)N4CCC5(CCOCC5)CC4)cc3)c21 [Compound I-58, 4-((4-(3-oxa-9-azaspiro[5.5]undecane-9-carbonyl)phenyl)amino)-2-(2,6-difluorophenyl)-6,7-dihydro-5H-pyrrolo[3,4-b]pyridin-5-one] | ≤ 10 | 2000 to 20000 | ≤ 2000 | ≤ 10 |
| O=C1NCc2nc(-c3c(F)cccc3F)cc(Nc3ccc(N4CCC5(CC4)OCCO5)cn3)c21 [Compound I-62, 4-((5-(1,4-dioxa-8-azaspiro[4.5]decan-8-yl)pyridin-2-yl)amino)-2-(2,6-difluorophenyl)-6,7-dihydro-5H-pyrrolo[3,4-b]pyridin-5-one] | ≤ 10 | ≤ 2000 | ≤ 2000 | 10 to 100 |
| O=C1CCOc2cc(Nc3cc(-c4c(F)cccc4F)nc4c3C(=O)NC4)ccc21 [Compound I-72, 2-(2,6-difluorophenyl)-4-((4-oxochroman-7-yl)amino)-6,7-dihy-dro-5H-pyrrolo[3,4-b]pyridin-5-one] | 10 to 100 | > 20000 | > 20000 | ≥ 1000 |
| N#Cc1cccc(F)c1-c1cc(Nc2ccc(N3CCC4(C[C@H](O)CO4)C3)cn2)c2c(n1)CNC2=O (stereo in doubt) [Compound I-93, 3-fluoro-2-(4-((5-((3S,5R)-3-hydroxy-1-oxa-7-azaspiro[4.4]nonan-7-yl)pyridin-2-yl)amino)-5-oxo-6,7-dihydro-5H-pyrrolo[3,4-b]pyridin-2-yl)benzonitrile] | ≤ 10 | 2000 to 20000 | ≤ 2000 | 10 to 100 |
| C[C@](O)(c1ccc(Nc2nc(-c3c(F)cccc3F)nc3c2C(=O)NC3)cc1)C(F)(F)F [Compound I-34, (S)-2-(2,6-difluorophenyl)-4-((4-(1,1,1-trifluoro-2-hydroxy-propan-2-yl)phenyl)amino)-6,7-dihydro-5H-pyrrolo[3,4-d]pyrimidin-5-one] | – | 2000 to 20000 | ≤ 2000 | 10 to 100 |
| O=C1NCc2nc(-c3c(F)cccc3F)nc(Nc3ccc4c(c3)NCC4)c21 [Compound I-1, 2-(2,6-difluorophenyl)-4-(indolin-6-ylamino)-6,7-dihydro-5H-pyrrolo[3,4-d]pyrimidin-5-one] | ≤ 10 | 2000 to 20000 | ≤ 2000 | 100 to 1000 |
| O=C1NCc2nc(-c3c(F)cccc3F)cc(Nc3ccc(N4CCOC45COC5)cn3)c21 [Compound I-65, 4-((5-(2,5-dioxa-8-azaspiro[3.4]octan-8-yl)pyridin-2-yl)amino)-2-(2,6-difluorophenyl)-6,7-dihydro-5H-pyrrolo[3,4-b]pyridin-5-one] | ≤ 10 | 2000 to 20000 | ≤ 2000 | ≤ 10 |
| CC1(C)COc2cc(Nc3cc(-c4c(F)cccc4F)nc4c3C(=O)NC4)ccc21 [Compound I-70, 2-(2,6-difluorophenyl)-4-((3,3-dimethyl-2,3-dihydrobenzofuran-6-yl)amino)-6,7-dihydro-5H-pyrrolo[3,4-b]pyridin-5-one] | ≤ 10 | > 20000 | ≤ 2000 | 100 to 1000 |
| O=C1NCc2c1c(Nc1ccc(C(=O)N3CCOCC3)cc1)cc(-c1c(F)cccc1F)[n+]2[O-] [Compound I-84, 2-(2,6-difluorophenyl)-4-((4-(morpholine-4-carbonyl)phenyl)-amino)-5-oxo-6,7-dihydro-5H-pyrrolo[3,4-b]pyridine 1-oxide] | 10 to 100 | > 20000 | > 20000 | ≥ 1000 |
| CC1(C)Cc2ccc(Nc3nc(-c4c(F)cccc4F)nc4c3C(=O)NC4)cc2N1 [Compound I-3, 2-(2,6-difluorophenyl)-4-((2,2-dimethylindolin-6-yl)amino)-6,7-dihydro-5H-pyrrolo[3,4-d]pyrimidin-5-one] | ≤ 10 | – | – | 100 to 1000 |
| CN1C(=O)C(C)(c2ccc(Nc3nc(-c4c(F)cccc4F)nc4c3C(=O)NC4)cc2)Oc2ccccc21 (stereo not drawn) [Compound I-39, 2-(4-((2-(2,6-difluorophenyl)-5-oxo-6,7-dihydro-5H-pyrrolo[3,4-d]pyrimidin-4-yl)amino)phenyl)-2,4-dimethyl-2H-benzo[b][1,4]oxazin-3(4H)-one] | ≤ 10 | – | – | 100 to 1000 |
| CC1(C)COc2nc(Nc3cc(-c4c(F)cccc4C#N)nc4c3C(=O)NC4)ccc21 [Compound I-85, 2-(4-((3,3-dimethyl-2,3-dihydrofuro[2,3-b]pyridin-6-yl)amino)-5-oxo-6,7-dihydro-5H-pyrrolo[3,4-b]pyridin-2-yl)-3-fluorobenzonitrile] | ≥ 1000 | – | – | ≥ 1000 |
| O=C1NCc2nc(-c3c(F)cccc3F)cc(Nc3ccc(N4CCC5(CC4)COC5)cn3)c21 [Compound I-24, 4-((5-(2-oxa-7-azaspiro[3.5]nonan-7-yl)pyridin-2-yl)amino)-2-(2,6-difluorophenyl)-6,7-dihydro-5H-pyrrolo[3,4-b]pyridin-5-one] | ≤ 10 | – | – | ≤ 10 |
| CC1(C)Cc2ccc(Nc3cc(-c4c(F)cccc4F)nc4c3C(=O)NC4)cc2O1 [Compound I-71, 2-(2,6-difluorophenyl)-4-((2,2-dimethyl-2,3-dihydrobenzofuran-6-yl)amino)-6,7-dihydro-5H-pyrrolo[3,4-b]pyridin-5-one] | 10 to 100 | – | – | 100 to 1000 |
| O=C1NCc2nc(-c3c(F)cccc3F)cc(Nc3ccc(C(=O)N4CCOC5(CC5)C4)cc3)c21 [Compound I-50, 4-((4-(4-oxa-7-azaspiro[2.5]octane-7-carbonyl)phenyl)amino)-2-(2,6-difluorophenyl)-6,7-dihydro-5H-pyrrolo[3,4-b]pyridin-5-one] | ≤ 10 | – | – | 10 to 100 |
| O=C1NCc2nc(-c3c(F)cccc3F)cc(Nc3ccc4c(c3)OC3(CC3)C4=O)c21 [Compound I-77, 2-(2,6-difluorophenyl)-4-((3-oxo-3H-spiro[benzofuran-2,1′-cyclopropan]-6-yl)amino)-6,7-dihydro-5H-pyrrolo[3,4-b]pyridin-5-one] | ≤ 10 | – | – | 10 to 100 |
| CC1(C)COc2cc(Nc3nc(-c4c(F)cccc4F)nc4c3C(=O)NC4)ccc21 [Compound I-23, 2-(2,6-difluorophenyl)-4-((3,3-dimethyl-2,3-dihydrobenzofuran-6-yl)amino)-6,7-dihydro-5H-pyrrolo[3,4-d]pyrimidin-5-one] | ≤ 10 | – | – | 100 to 1000 |
| O=C1NCc2nc(-c3c(F)cccc3F)cc(Nc3ccc4c(c3)COB4O)c21 [Compound I-61, 2-(2,6-difluorophenyl)-4-((1-hydroxy-1,3-dihydro-benzo-[c][1,2]oxaborol-5-yl)amino)-6,7-dihydro-5H-pyrrolo[3,4-b]pyridin-5-one] | 10 to 100 | – | – | ≥ 1000 |
| CCNC(=O)[C@](C)(O)c1ccc(Nc2nc(-c3c(F)cccc3F)nc3c2C(=O)NC3)cc1 [Compound I-16, (R)-2-(4-((2-(2,6-difluorophenyl)-5-oxo-6,7-dihydro-5H-pyrrolo[3,4-d]pyrimidin-4-yl)amino)phenyl)-N-ethyl-2-hydroxypropanamide] | ≤ 10 | – | – | 100 to 1000 |
| CC(O)(c1ccc(Nc2nc(-c3c(F)cccc3F)nc3c2C(=O)NC3)cc1)C(F)(F)F (stereo not drawn) [Compound I-33, 2-(2,6-difluorophenyl)-4-((4-(1,1,1-trifluoro-2-hydroxy-propan-2-yl)phenyl)amino)-6,7-dihydro-5H-pyrrolo[3,4-d]pyrimidin-5-one] | ≤ 10 | – | – | 100 to 1000 |
